Where two headings read alike, the source gives them in different places.

The subject of series [1] is myeloperoxidase (MPO) activity. The series is described as follows: Tissue inflammation: myeloperoxidase activity in colon tissue. The conditions noted are these: supplemented rats, 24 h after TNBS; unsupplemented rats greater than 30-fold. It is filed as in vivo, rat. Here is the method:
Tissue inflammation-Myeloperoxidase activity: Colonic tissue samples (approximately 100-120 mg) were collected 4 cm proximal to the anus. Each tissue sample was homogenized in a solution containing 0.5% hexa-decyl-trimethyl-ammonium bromide (HTAB) (Sigma-Aldrich Corp, St. Louis, Mo.) buffer (0.5% HTAB in 50 mM phosphate buffer, pH 6.0). Tissue samples were minced in a test tube containing 1 ml of HTAB buffer on ice and homogenized with a Polytron tissue homogenizer (Brinkmann Instruments, Inc, Westbury N.Y., USA). The pooled homogenates and washes were sonicated in water for 20 seconds. After three cycles of freeze-thawing, the sonicated samples were centrifuged in cold for 15 min. at 40,000×g. Myeloperoxidase activity (MPO) was assayed in the supernatant as described by Krawisz (Krawisz et al., 1984) after addition of O-dianizidine-HCl (Sigma-Aldrich Corp, St Louis, Mo.) and 0.15% (v/v) H2O2 as a substrate for the MPO. The rate of change in absorbance was measured spectrophotometrically at 460 nm, and is expressed as the amount of enzyme necessary to produce a change in absorbance of 1.0 unit per minute (1 unit) per gram wet weight tissue.

Series [2] deals with 18S RNA and GAPDH. Nature of the series: Housekeeping transcripts 18S and GAPDH in colon tissue (RT-PCR). Format: in vivo, rat. The conditions noted are these: supplemented rats (FIG. 7A).
The test system of series [3] is NRF-1. Nature of the series: NRF1 mRNA in colon tissue (RT-PCR). Format: in vivo, rat. Here is the method: Mitochondrial (mt) TFA, NRF1, and cytochrome c mRNA analysis: Total RNA was extracted from 50 to 100 mg tissue at a time using 1 ml of Tri Reagent® (Sigma-Aldrich Corp., St. Louis, Mo.) according to manufacturer's instructions. First strand cDNA synthesis was carried out using reverse-iTTM First Strand Synthesis from Advanced Biotechnologies (ABgene®, ABgene, Epsom, U.K.) was used according to the manufacturer's instructions. Target sequences were amplified in the PCR reaction as follows: each tube contained 37 ng of cDNA from cytochrome c, GAPDH, or 18S, 3 μl of specific primers, 12.5 μl of ready Mix and 6.5 μl water DEPC (for a total 25 μl in each tube).
The PCR for cytochrome c, NRF1 and mtTFA was run at 95° C. for 5 min, 94° C. for 30 sec, 56° C. for 2 min, 72° C. for 1 min, back to stage 2 for 22, 26, 24 cycles, respectively, then 72° C. for 10 min, and 4° C. The products of the PCR were separated on a 1% agarose gel in TAE buffer with ethidium bromide. The electrophoresis took place in a BioRad device in 1×TAE buffer at 95 V for about 50 min (maximum mA). The size of the cDNA was determined by a 100-bp marker.
Rat NFR-1: (Antisense) 5′-[…]-3′ (SEQ ID No. 13) corresponding to nucleotides 450 to 469 of rat NFR-1 (GenBank Accession No. XM231566).
(Sense): 5′-[…] -3′ (SEQ ID No. 14). The expected PCR product was 461 bp, the actual 461 bp.

Series [4] deals with Sp1. The series is described as follows: Sp1 protein (Western blot). The conditions noted are these: FIG. 13B. Format: cell-based, murine. Here is the method: Western blots (Sp1, MnSOD, UCP2): Cells were grown in six-well tissue culture plates, treated with selenium for 72 h and activated with LPS and IFN-γ for 24 h. The wells were washed with PBS, scraped and centrifuged
(5 min. 2000 RPM), and lysed by addition of boiling hot lysis buffer (1% SDS, 1 mM sodium ortho-vanadate, 10 mM Tris pH 7.4) to the pellets. Protein content was measured (BIO RAD protein assay kit) and equalized. Sample buffer (containg SDS) was added and the samples were boiled. The samples were subjected to SDS-PAGE followed by western blot analysis. Separated proteins were transferred electrophoretically from the gel to a nitrocellulose membrane (Amersham International plc, Buckinghamshire, ENGLAND). The membrane was blocked in TBS (0.15 M NaCl/10 mM Tris/HCl, pH7.4) containing 5% (v/v) skimmed milk (Blotto), then incubated over night with primary antibodies at RT (diluted 1/2000 in blotto). After being washed six times in TBST [TBS containing 0.05% (v/v) Tween 20], the membrane was incubated for 2 h at room temperature with secondary antibody (diluted 1/5000 in blotto). Immunoreactive bands were detected with ECL western blotting detection reagents (Amersham Pharmacia Biotech, Buckingammshire England) and developed on film (Fuji super RX, Dusseldorf, Germany). […]
(In general: In western blotting, separated proteins are transferred to a membrane and probed.)

Series [5] is described as follows: Cell viability (PI exclusion, flow cytometry). Format: cell-based, murine. To be noted: mouse, J774.2 macrophages, 10 μM, 24 hour exposure. As to the method: (§1) Experiments were performed on cells at 60% confluence.
(§2) Determination of cell viability: Cell-membrane integrity was detected by flow cytometer (FACSort, Becton Dickenson and Co., San Jose, Calif. USA) as a measurement of cell viability. For this assay, the nonpermeant DNA-intercalating dye propidium iodide (PI), which is excluded by viable cells, was used. Fluorescence settings were excitation at 488 nm and emission at 575 nm. Data were collected from at least 10,000 cells.
(In flow cytometry, cells or beads pass a laser one at a time.)

In series [6] the test system is J774.2 macrophages. The series is described as follows: Cell viability (PI exclusion, flow cytometry). To be noted: 10 μM, activated cells. Format: cell-based, murine. As to the method: as §1, §2
Series [7] concerns J774.2 macrophages. The series is described as follows: Type of cell death (annexin V-FITC / PI). The conditions noted are these: 10 μM, 24 hours; annexin V-FITC and PI. It is filed as cell-based, murine. As to the method: as §1
Determination of type of cell death: Type of cell death was determined by dual staining with annexin V-FITC (Santa Cruz Biotechnology, Santa Cruz Calif., USA) and PI, and flow cytometric analysis. Cells were treated with 10 μM selenite for 24 h then collected and re-suspended in binding buffer (10 mM HEPES/NaOH, pH 7.4, 140 mM NaCl, 2.5 mM CaCl2). 2.5 μg/ml annexin V-FITC was added and cells were incubated for 30 min at room temperature, then 0.25 μg/ml PI was added and samples were analyzed by flow cytometry (FACSort, Becton Dickenson and. Co., San Jose, Calif. USA).

For series [8], the system named is myocarditic Coxsackie virus B3. The conditions noted are these: 5 ppm in the water; cited from earlier work.
The conditions of series [9]: in vivo; cited from earlier work.

As for `[Se]` [selenium], in [1], the “myeloperoxidase elevation following hapten administration, compared to uninduced controls” value was “approximately 5 fold”. Further, the “18S and GAPDH transcription” value in series [2] is “without effecting”. In addition, the “NRF-1 levels in colon tissue, colitis-induced rats” value in series [3] (24 h after TNBS, supplemented (FIG. 17 lane 4), unsupplemented nearly 50% reduction) is “surpass that of healthy control rats”. Besides, in [3] (healthy supplemented rats (FIG. 17 lane 2)), the “NRF-1 levels in colon tissue, healthy rats” value is “significantly enhances”. The “Sp-1 gene expression / synthesis (Western blot)” value in series [4] is “no change”. The cytotoxicity at 24 h, 10 μM in series [5] (LPS + INFγ activated (FIG. 14A column c), read-out: decrease in viability, activated cells) is no more than 50%; in [5] (not activated, read-out: decrease in viability, control cells), 60%. Further, in series [6] (from 75% without selenium (FIG. 14A)), the “cell survival, simultaneous selenium exposure and activation” value turned out to be 35%. In series [6] (from 75% without selenium (FIG. 14B)), the “cell survival, selenium following activation by 24 hours” value was determined as 55%. The “character of cell death” value in series [7] is listed as “cell death with necrotic characteristics”. For the same compound, in series [8], the “inflammatory lesions and necrosis” value is “no effect”. Also, the “average lifetime daily intake with biochemical and clinical symptoms” value in series [9] is given as “greater than 1000 microgram”.
